Measurements published in patent publication US11603355B2, “Charged ion channel blockers and methods for use” (Nocion Therapeutics, Inc., priority 2019, dated 2023).

Experiments:
NaV1.7 [1] = target: T1, NaV1.7 (Homo sapiens, UniProt Q15858); test: Automated patch clamp (Qube 384), internal block of NaV1.7; format: cell-based; details: IC50, compound in internal solution, HEK293 cells, read-out: Nav1.7 Intracellular Inhibition
T1 construct: expressed in transfected cells; host or cells: HEK293 (tetracycline-inducible)
T1 sequence (Q15858 whole entry): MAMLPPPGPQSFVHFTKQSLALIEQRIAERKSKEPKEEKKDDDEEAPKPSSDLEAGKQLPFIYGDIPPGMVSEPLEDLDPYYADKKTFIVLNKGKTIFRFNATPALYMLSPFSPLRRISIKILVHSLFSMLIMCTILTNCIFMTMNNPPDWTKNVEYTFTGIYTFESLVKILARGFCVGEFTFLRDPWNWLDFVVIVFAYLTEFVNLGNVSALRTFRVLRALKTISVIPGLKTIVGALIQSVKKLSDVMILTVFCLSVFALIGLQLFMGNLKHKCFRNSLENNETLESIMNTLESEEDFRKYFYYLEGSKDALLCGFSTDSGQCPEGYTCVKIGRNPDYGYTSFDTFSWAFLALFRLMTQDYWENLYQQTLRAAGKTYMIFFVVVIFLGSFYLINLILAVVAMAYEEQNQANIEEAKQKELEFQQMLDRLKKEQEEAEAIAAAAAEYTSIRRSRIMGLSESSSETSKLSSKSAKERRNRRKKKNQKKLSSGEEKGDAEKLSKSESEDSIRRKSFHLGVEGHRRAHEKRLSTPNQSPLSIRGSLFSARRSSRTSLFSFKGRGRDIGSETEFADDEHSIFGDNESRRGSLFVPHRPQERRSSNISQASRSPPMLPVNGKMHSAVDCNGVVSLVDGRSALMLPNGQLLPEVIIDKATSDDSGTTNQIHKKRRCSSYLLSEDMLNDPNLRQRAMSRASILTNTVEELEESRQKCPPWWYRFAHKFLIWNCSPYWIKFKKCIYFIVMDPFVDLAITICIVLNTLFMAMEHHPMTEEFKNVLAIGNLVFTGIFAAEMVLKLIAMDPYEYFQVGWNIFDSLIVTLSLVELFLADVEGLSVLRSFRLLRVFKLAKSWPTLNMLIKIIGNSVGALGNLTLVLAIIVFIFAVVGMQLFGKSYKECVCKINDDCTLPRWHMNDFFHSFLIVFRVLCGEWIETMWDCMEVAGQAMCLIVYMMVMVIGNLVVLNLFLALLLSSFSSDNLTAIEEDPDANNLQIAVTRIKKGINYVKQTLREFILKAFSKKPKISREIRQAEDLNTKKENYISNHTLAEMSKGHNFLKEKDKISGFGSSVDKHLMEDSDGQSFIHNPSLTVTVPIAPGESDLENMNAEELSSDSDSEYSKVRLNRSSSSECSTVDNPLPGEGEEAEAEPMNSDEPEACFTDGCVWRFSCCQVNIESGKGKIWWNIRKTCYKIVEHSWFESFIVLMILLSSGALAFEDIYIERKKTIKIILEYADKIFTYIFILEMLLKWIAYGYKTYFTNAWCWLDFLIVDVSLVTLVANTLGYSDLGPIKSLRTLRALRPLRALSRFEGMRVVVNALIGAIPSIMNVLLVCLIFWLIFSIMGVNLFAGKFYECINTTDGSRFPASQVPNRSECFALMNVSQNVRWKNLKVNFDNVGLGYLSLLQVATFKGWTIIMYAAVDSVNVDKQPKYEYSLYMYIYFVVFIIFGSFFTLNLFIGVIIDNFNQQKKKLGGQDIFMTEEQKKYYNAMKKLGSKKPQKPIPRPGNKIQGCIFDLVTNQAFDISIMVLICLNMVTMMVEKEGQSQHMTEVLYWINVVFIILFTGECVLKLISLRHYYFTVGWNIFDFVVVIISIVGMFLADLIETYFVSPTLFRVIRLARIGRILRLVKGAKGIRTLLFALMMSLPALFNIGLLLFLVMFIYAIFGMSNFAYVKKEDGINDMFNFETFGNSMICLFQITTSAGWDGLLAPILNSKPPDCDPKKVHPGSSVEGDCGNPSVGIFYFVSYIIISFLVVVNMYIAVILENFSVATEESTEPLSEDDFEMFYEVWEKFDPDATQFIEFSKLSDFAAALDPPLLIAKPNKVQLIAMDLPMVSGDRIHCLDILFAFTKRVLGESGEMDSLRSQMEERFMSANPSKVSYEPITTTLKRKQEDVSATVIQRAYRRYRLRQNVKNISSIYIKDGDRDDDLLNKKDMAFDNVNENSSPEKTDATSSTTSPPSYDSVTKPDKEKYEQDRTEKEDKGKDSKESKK
Method: (§1) NaV1.7 was expressed in HEK293 cells upon induction with tetracycline. Cells were cultured in DMEM containing 10% dialyzed Fetal Bovine Serum (VWR, Radnor, Pa.), 1% Glutamax (VWR, Radnor, Pa.), 1% Penicillin-Streptomycin (VWR, Radnor, Pa.), 100 mg/L Hygromycin (Thermo Fisher Scientific, Waltham, Mass. and 5 mg/L Blasticidin (Alfa Aesar, Haverhill, Mass.). Cells were grown and maintained at 37° C. in a humidified environment containing 10% CO2 in air. Cells were detached from the culture flask for passage and harvested using 0.05% Trypsin-EDTA (Thermo Fisher Scientific, Waltham, Mass.). To induce NaV1.7, cells were induced with tetracycline (0.1-1 μg/mL, IBI Scientific, Peosta, Iowa) the day before recording.
Before experiments, cells were washed with DPBS (VWR, Radnor, Pa.), digested with Detachin (VWR Radnor, Pa.) and then triturated 10 times in CHO Serum-Free Media (VWR Radnor, Pa.) to resuspend the cells and to break apart cell aggregates. Cells were counted and the final concentration was set at 2-5 million cells per mL.
The intracellular solution contained the following: 140 mM CsF, 1 mM/5 mM EGTA/CsOH, 10 mM HEPES, 10 mM NaCl, adjusted to pH 7.3 with CsOH, and osmolality to 320 with OSM solution. The external solution contained the following: 145 mM NaCl, 4 mM KCl, 1 mM MgCl2, 2 mM CaCl2), 10 mM HEPES, 10 mM Glucose, adjusted to pH 7.4 with CsOH and osmolality to 305 with OSM solution. The OSM solution was a normal Ringer solution containing (in mM) NaCl 155, HEPES 10, sucrose, KCl 3.5, CaCl2) 1.5, MgCl2 1 adjusted to pH 7.4 with NaOH. All chemicals are from Sigma-Aldrich, St. Louis, Mo. In order to test the degree of internal block by test compounds, the compounds were dissolved in internal solution at the indicated test concentration. […] In order to test the degree of external block by test compounds the compounds were dissolved in external solution at the indicated test concentration.
Automated Patch Clamps were performed on Qube 384 (Sophion Bioscience, Woburn Mass.) with multihole Qchips at a temperature setting of 22 degrees. The whole cells configuration was formed with default Qube seal and break-in parameter. The membrane potential was held at −100 mV before the voltage protocol began. Two voltage protocols were followed.
Step 1: Cells were held at −100 mV with a depolarized pulse to −20 mV for 10 ms, the interval was set at 5 s. Currents were corrected by default leak subtraction from every pulse. The duration was set at 5 mins.
Step 2: Cells were held at −100 mV with a depolarized pulse to −20 mV for 10 ms. The frequency was 5 Hz. Currents were corrected by leak subtraction calculated before step 2. The duration was set at 4 mins.
After Step 2, the Qchip was removed from the recording chamber. The internal solution was changed with solutions containing test compounds. Qchips were held at −100 mV without pulsing after being replaced in the recording chamber. The total solution switching time was 8 minutes. After the internal solution exchange, Cells were recorded and step 2 for repeated for 10 minutes.
Data analysis was performed by Sophion Analyzer. Cells were filtered with minimum 50 MOhm seal resistance and minimum 5 nA starting current. The rundown of the currents was corrected with control cells (Non-Drug). The remaining was calculated by averaging last 3 points in the end of experiments. The base line was calculated as the average of last 3 points of Step 2.
IC50 curves were plotted with DR-plots/Hill function (a dose-response plot with a Hill fit).
Representative examples of the invention were tested for intracellular inhibition of NaV 1.7 in the automated patch clamp assay. Activity Range is reported as IC50: “++++” (<0.3 μM), “+++” (0.3-1 μM), “++” (1-3 μM) or “+” (3-10 μM).

[2] = PAMPA membrane permeability assay; format: in vitro ADME; details: permeability coefficient, pH 7.4 buffer, GIT lipid, 4 hours incubation
Method: The PAMPA assay (pION, Inc., Woburn Mass.) was used to determine the ability of compounds of the invention to cross an artificial lipid membrane by passive diffusion. Test compounds were dissolved in DMSO (10 mM) and diluted 200-fold in buffer (pION Inc., pH 7.4) to provide 50 uM stock solutions. Buffer (150 μL) was added to a UV blank plate and stock solutions (150 μL) were transferred to a UV reference plate. The blank and reference spectrum were read using a spectrophotometer. Stock solutions (200 μL) were added to the donor plate of the PAMPA sandwich plate and an accept plate painted with GIT lipid (pION Inc, 5) was placed on top. Buffer (200 μL) was added to the acceptor plate and the PAMPA sandwich plate was incubated for 4 hours. Aliquots (150 μL) from the acceptor plate were added to a UV plate and read as acceptor spectrum. Aliquots (150 μL) of the donor solutions were added to a UV analysis plate and read as donor spectrum. The permeability coefficient of test compounds was calculated using PAMPA Explorer™ software (version 3.5.0.4) based on the AUC of the reference plate, the donor plate, and the acceptor plate.
The PAMPA permeability results (10^−6 cm/s) of representative compounds are reported as “+” (<0.1 10^−6 cm/s), “++” (0.1-2.0 10^−6 cm/s), “+++” (2.0-10.010^−6 cm/s) or “++++” (>10.0 10^−6 cm/s).

NaV1.7 [3] = target: T1, NaV1.7; test: Manual patch clamp, internal block of NaV1.7 current; format: cell-based; details: compound in internal solution, HEK293 cells, read-out: Nav1.7 Intracellular Inhibition; for inhibition at 3 µM: % inhibition at 3 μM test concentration; for inhibition at 10 µM: % inhibition at 10 μM test concentration
Method: Representative compounds of the invention were synthesized according to the described methods and tested for the ability to inhibit voltage-gated sodium channels.
as §1, with “recording and plated onto 24-well plates. Cells were washed with DPBS (VWR, Radnor, Pa.), trypsinized and then triturated five times in 10 mL of growth media to break apart cell aggregates. For one 24-well plate, 2 mL of cell suspension was mixed with 23 mL of fresh growth media and 0.1-1 μg/mL tetracycline added. 1 ml of mixed media with cells was then added to each well of a 24-well plate, with a 12 mm coverslip already placed in the bottom of the well. Cells were then incubated in 37° C. and 10% CO2 overnight.” for “recording.”
The intracellular solution contained the following (in mM) CsCl 135, NaCl 10, EGTA 10, HEPES 10, MgCl2 2, adjusted to pH 7.2 with CsOH. The external solution was a normal Ringer solution containing (in mM) NaCl 155, HEPES 10, glucose 10, KCl 3.5, CaCl2 1.5, MgCl2 1 adjusted to pH 7.4 with NaOH. CsCl is from Alfa Aesar, Haverhill, Mass. All other chemicals are from Sigma-Aldrich, St. Louis, Mo. In order to test the degree of internal block by test compounds the compounds were dissolved in internal solution at the indicated test concentration. […] In order to test the degree of external block by test compounds the compounds were dissolved in external solution at the indicated test concentration.
18-24 hours after cells were induced with tetracycline, coverslips were placed into a chamber filled with Normal Ringer solution at room temperature and the chamber placed on a microscope. Pipettes were pulled from borosilicate glass on a P97 puller (Sutter Instrument, Novato, Calif.) and polished with a MF-830 Microforge (Narishige International USA, Inc., Amityville, N.Y.) to have a resistance of 1.5-2.5 MΩ when filled with CsCl internal solution at room temperature. Healthy cells (those that are round and translucent with no visible blemishes) were chosen for seal formation. A seal was formed between the pipette and the cell, and a brief pulse of suction was used to “break in” and establish the whole-cell configuration. The membrane potential was held at −100 mV before the voltage protocol began. Only cells with series resistance between 1.5-5 MΩ were retained for analysis. The voltage protocol was as follows: Cells were held at −100 mV for 12 ms followed by a hyperpolarizing step to −105 mV for 12 ms to monitor the leak. Cells were then stepped back to −100 mV for 40 ms. Cells were then depolarized to −20 mV for 10 ms and then returned to −100 mV for 26 ms.
Once the recording was started, the voltage protocol was run at 30 second intervals for 5 minutes to get a stable baseline. This was followed by four 30-second periods of 5 Hz stimulation of the same voltage protocol separated by 1 minute of rest which was then followed by 0.33 Hz stimulation after the last train. Currents were recorded using PatchMaster software with Heka EPC10 (HEKA Electronics, Lambrecht, Germany). Only cells with inward current amplitudes at −20 mV between 400 pA and 4 nA were accepted. In addition, cells having leak currents greater than 10% of their current amplitudes were discarded. […]

Row | SMILES | IC50 (NaV1.7 [1]) | PAMPA (10^−6 cm/s) [2] | inhibition at 3 µM (NaV1.7 [3]) | inhibition at 10 µM (NaV1.7 [3])
1 | Cc1cccc(C)c1NC(=O)C[N+]1(Cc2ccccc2)CCCCCCC1.[Br-] [Compound 31A, 1-benzyl-1-(2-((2,6-dimethylphenyl)amino)-2-oxoethyl)azocan-1-ium bromide] |  | + (“+” (<0.1 10^−6 cm/s)) | > 90% | > 95%
2 | CCC(C(=O)Nc1c(C)cccc1C)[N+]1(Cc2cnn(C)c2)CCCCC1.[Br-] (stereo not drawn) [Compound 34A, 1-(1-((2,6-dimethylphenyl)amino)-1-oxobutan-2-yl)-1-((1-methyl-1H-pyrazol-4-yl)methyl) piperidin-1-ium bromide] |  | + (“+” (<0.1 10^−6 cm/s)) | 70 to 90% | 
3 | CCC(C(=O)Nc1c(C)cc(C)cc1C)[N+]1(Cc2ccccc2)CCCCC1.[Br-] (stereo not drawn) [Compound 39A, 1-benzyl-1-(1-(mesitylamino)-1-oxobutan-2-yl) piperidin-1-ium bromide] |  | + (“+” (<0.1 10^−6 cm/s)) |  | 70 to 95%
4 | CCCCNC(=O)C1CCC[N+](CC(=O)Nc2c(C)cccc2C)(Cc2ccccc2)C1.[Br-] (stereo not drawn) [Compound 59A] |  | + (“+” (<0.1 10^−6 cm/s)) | < 40% | 70 to 95%
5 | Cc1cccc(C)c1NC(=O)C[N+]1(Cc2ccccc2)CCCC(C(=O)NC2CCCCC2)C1.[Br-] (stereo not drawn) [Compound 61A] | 3000 to 10000 nM | + (“+” (<0.1 10^−6 cm/s)) |  | 
6 | CCCN(CCC)C(=O)C1CCC[N+](CC(=O)Nc2c(C)cccc2C)(Cc2ccccc2)C1 (stereo not drawn) [Compound 67A] | 1000 to 3000 nM |  |  | 
7 | Cc1cccc(C)c1OCC[N+]1(Cc2ccccc2)CCCCCC1 [Compound 85A, 1-benzyl-1-(2-(2,6-dimethylphenoxy)ethyl) azepan-1-ium bromide] | 1000 to 3000 nM |  | > 90% | > 95%
8 | Cc1cccc(C)c1N1CCCC([N+]2(Cc3ccccc3)CCCCCC2)C1=O (stereo not drawn) [Compound 93A] |  | + (“+” (<0.1 10^−6 cm/s)) | 70 to 90% | 

Second part, the compound after the results:

Row | IC50 (NaV1.7 [1]) | PAMPA (10^−6 cm/s) [2] | inhibition at 3 µM (NaV1.7 [3]) | inhibition at 10 µM (NaV1.7 [3]) | SMILES
9 | 300 to 1000 nM |  |  |  | Cc1cccc(C)c1NC(=O)C[N+]1(Cc2ccccc2)CCCCCC1 [Compound 3]
10 | 300 to 1000 nM |  |  |  | CCC(C(=O)Nc1c(C)cccc1C)[N+]1(Cc2cccc(Cl)c2)CCCCC1 (stereo not drawn) [Compound 11]
11 | 300 to 1000 nM |  |  |  | CCC(C(=O)Nc1c(C)cccc1C)[N+]1(Cc2cccc(C#N)c2)CCCCC1 (stereo not drawn) [Compound 14]
12 | 1000 to 3000 nM |  |  |  | CCc1cccc(C[N+]2(C(CC)C(=O)Nc3c(C)cccc3C)CCCCC2)c1 (stereo not drawn) [Compound 20]
13 | 300 to 1000 nM |  |  |  | CCC(C(=O)Nc1c(C)cccc1C)[N+]1(Cc2cccc(OC)c2)CCCCC1 (stereo not drawn) [Compound 23]
14 | < 300 nM |  |  |  | CCC(C(=O)Nc1c(C)cccc1C)[N+]1(Cc2cccc(O)c2)CCCCC1 (stereo not drawn) [Compound 29]
15 | < 300 nM |  |  |  | CCC(C(=O)Nc1c(C)cccc1C)[N+]1(Cc2ccccc2)CCCCCC1 (stereo not drawn) [Compound 30]
16 | 1000 to 3000 nM | + (“+” (<0.1 10^−6 cm/s)) |  |  | Cc1cccc(C)c1NC(=O)C[N+]1(Cc2ccccc2)CCCC(C(=O)OCC(C)C)C1.[Br-] (stereo not drawn) [Compound 48A]
17 | 1000 to 3000 nM | + (“+” (<0.1 10^−6 cm/s)) |  |  | Cc1cccc(C)c1NC(=O)C[N+]1(Cc2ccccc2)CCCC(C(=O)OC2CCCC2)C1.[Br-] (stereo not drawn) [Compound 50A]
18 | 1000 to 3000 nM | + (“+” (<0.1 10^−6 cm/s)) |  |  | Cc1cccc(C)c1NC(=O)C[N+]1(Cc2ccccc2)CCCC(C(=O)NC2CCCC2)C1.[Br-] (stereo not drawn) [Compound 60A]
19 | 300 to 1000 nM |  | > 90% |  | Cc1cccc(C(F)(F)F)c1NC(=O)C[N+]1(Cc2ccccc2)CCCCCC1 [Compound 73A]
